Our source for the IC50 values is US20230050965A1, “SSTR5 ANTAGONISTS” (Kallyope, Inc., priority 2019, published 2023).

In the assay the target is T1, human SSTR5 (Homo sapiens, UniProt P35346).
T1 construct: expressed in transfected cells
T1 sequence (P35346 whole entry): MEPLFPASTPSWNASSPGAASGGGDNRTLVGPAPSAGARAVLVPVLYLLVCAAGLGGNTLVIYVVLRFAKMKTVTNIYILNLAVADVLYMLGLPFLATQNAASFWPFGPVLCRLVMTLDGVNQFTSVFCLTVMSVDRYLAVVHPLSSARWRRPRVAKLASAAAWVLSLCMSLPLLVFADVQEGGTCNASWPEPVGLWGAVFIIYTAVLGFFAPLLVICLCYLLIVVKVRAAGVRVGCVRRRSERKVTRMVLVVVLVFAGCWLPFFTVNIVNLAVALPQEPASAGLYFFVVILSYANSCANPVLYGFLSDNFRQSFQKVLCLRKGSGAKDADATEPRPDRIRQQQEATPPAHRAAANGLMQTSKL
Kind of assay: Inositol phosphate (IP1) accumulation assay, antagonist mode. To be noted: CHO-K1 cells stably co-expressing human SSTR5 with Gqi5; pre-incubation with antagonist, then SST28 agonist; IP1 HTRF readout. The format is cell-based. From the text: Inositol Phosphate Accumulation Assay
CHO-K1 cells stably co-expressing human SSTR5 with Gqi5 were developed using Jump-In technology from Thermo-Fisher. Gqi5 is the mouse G alpha q protein, that was modified to interact with Gi-coupled GPCRs as described previously (Coward, P.; Chan, S. D.; Wada, H. G.; Humphries, G. M.; Conklin, B. R. Chimeric G proteins Allow a High-Throughput Signaling Assay of Gi-Coupled Receptors. Anal Biochem. 1999, 270(2), 242-248).
Co-expression of Gqi5 with SSTR5 allowed monitoring of SSTR5 activity by following IP1 accumulation. The assay was performed in a 384-well plate format using the IP1 assay kit from Cis-Bio in an antagonist mode, i.e., pre-incubation with antagonist following by receptor activation by agonist at a concentration generating 90% of full activation. Frozen cells expressing human SSTR5 were thawed, washed, and then plated in DMEM supplemented with 10% FBS and non-essential amino acids. 40 μL of 2.5×10^5 cells/mL were plated on a Poly D-Lysine coated 384-well white plate. The cells were then incubated for 16 hr. at 37° C./5% CO2. After 16 hour the medium was removed, and 10 μL of stimulation buffer was added to the cells. Test compounds were dissolved in DMSO at concentrations 2000-fold that of the final assay concentrations. 7.5 nL compound solutions were transferred to the cell plates using a Labcyte Echo® acoustic liquid handler. The plates were then incubated for 15 minutes at 37° C./5% CO2. After the first incubation, 5 μL of 30 nM SST28 were added to the cells, and the cells were incubated for 90 minutes at 37° C./5% CO2. 5 μL of detection buffer (prepared as described in the IP-1 kit) was added to each well, and the plates were incubated at RT for 1 hour.
TR-FRET was measured using a ClarioSTAR plate reader, calculating the ratio between emissions at 665 nm and 620 nm (HTRF ratio). The HTRF ratio for positive (Max) and negative (Min) controls were used to normalize HTRF data and generate values for % inhibition. IC50 and maximal inhibition values were determined using a standard 4-parameter fit.
Background: Time-resolved FRET reads energy transfer from a long-lived donor to a nearby acceptor.
The IC50 is the concentration needed to halve the response being measured. A higher IC50 goes with a need for much substance. As for `CCOc1cc(-c2ccc(F)cc2)c(C2CC2)cc1CN1CCC2(CC1)CN(c1ccc(P(C)(=O)O)cc1)C(=O)N2` [Compound 28, (4-(8-((2-cyclopropyl-5-ethoxy-4′-fluoro-[1,1′-biphenyl]-4-yl)methyl)-2-oxo-1,3,8-triazaspiro[4.5]decan-3-yl)phenyl)(methyl)phosphinic acid], the IC50 was ≤ 100 nM.

For the compound `CCOc1cc(-c2ccc(F)cc2)c(C2CC2)cc1CN1CCN(S(=O)(=O)Cc2ccc(P(=O)(O)OCC)cc2)CC1` [Compound 39, ethyl hydrogen (4-(((4-((2-cyclopropyl-5-ethoxy-4′-fluoro-[1,1′-biphenyl]-4-yl)methyl)piperazin-1-yl)sulfonyl)methyl)phenyl)phosphonate], the IC50 was ≤ 100 nM.

Consider `CCOc1nc(-c2ccc(F)cc2)c(C2CC2)cc1CN1CCC2(CC1)CN(c1ccc(P(=O)(O)O)cc1)C(=O)O2` [Compound 10, (4-(8-((5-cyclopropyl-2-ethoxy-6-(4-fluorophenyl)pyridin-3-yl)methyl)-2-oxo-1-oxa-3,8-diazaspiro[4.5]decan-3-yl)phenyl)phosphonic acid], for which the IC50 was ≤ 100 nM.

For the compound `CCOc1cc(-c2ccc(F)cc2)c(C2CC2)cc1CN1CCC2(CC1)CN(c1ccc(P(=O)(O)O)nc1)C(=O)O2` [Compound 6, (5-(8-((2-cyclopropyl-5-ethoxy-4′-fluoro-[1,1′-biphenyl]-4-yl)methyl)-2-oxo-1-oxa-3,8-diazaspiro[4.5]decan-3-yl)pyridin-2-yl)phosphonic acid], the IC50 is ≤ 100 nM.

On to `CCOc1cc(-c2ccc(F)cc2)c(C2CC2)cc1CN1CCC2(CC1)CN([C@H]1CC[C@@H](P(=O)(O)O)CC1)C(=O)O2` (single isomer, unassigned) [Compound 33, ((cis)-4-(8-((2-cyclopropyl-5-ethoxy-4'-fluoro-[1,1'-biphenyl]-4-yl)methyl)-2-oxo-1-oxa-3,8-diazaspiro[4.5]decan-3-yl)cyclohexyl)phosphonic acid], for which the IC50 was ≤ 100 nM.

As for `CCOc1cc(C(=O)OC)c(C2CC2)cc1CN1CCN(C(=O)Oc2ccc(CNC[C@H](O)[C@@H](O)[C@H](O)[C@H](O)CO)cc2)CC1` [Compound 42, 4-((((2S,3R,4R,5R)-2,3,4,5,6-pentahydroxyhexyl)amino)methyl)phenyl 4-(5-cyclopropyl-2-ethoxy-4-(methoxycarbonyl)benzyl)piperazine-1-carboxylate], the IC50 was > 5000 nM.

Compound `CCOc1cc(S(C)(=O)=O)c(C2CC2)cc1CN1CCC2(CC1)CN(c1cccc(CCCCNC(=O)NC(CO)(CO)CO)c1)C(=O)N2` [Compound 31, 1-(4-(3-(8-(5-cyclopropyl-2-ethoxy-4-(methylsulfonyl)benzyl)-2-oxo-1,3,8-triazaspiro[4.5]decan-3-yl)phenyl)butyl)-3-(1,3-dihydroxy-2-(hydroxymethyl)propan-2-yl)urea] yielded an IC50 of 100 to 1000 nM.

On to `CCOc1cc(C(=O)OC)c(C2CC2)cc1CN1CCC2(CC1)CC(=O)N(c1ccc(CCCCNS(C)(=O)=O)cc1)C2` [Compound 18, methyl 2-cyclopropyl-5-ethoxy-4-((2-(4-(4-(methylsulfonamido)butyl)phenyl)-3-oxo-2,8-diazaspiro[4.5]decan-8-yl)methyl)benzoate], for which the IC50 is 1000 to 5000 nM.

On to `CCOc1nc(-c2ccc(F)cc2)c(C2CC2)cc1CN1CCC2(CC1)CN(c1ccc(P(C)(=O)O)cc1)C(=O)O2` [Compound 4, (4-(8-((5-cyclopropyl-2-ethoxy-6-(4-fluorophenyl)pyridin-3-yl)methyl)-2-oxo-1-oxa-3,8-diazaspiro[4.5]decan-3-yl)phenyl)(methyl)phosphinic acid], for which the IC50 was ≤ 100 nM.

`CCOc1cc(C(=O)OC)c(C2CC2)cc1CN1CCC2(CC1)CC(=O)N(c1ccc(CCCCNC(=O)CO)cc1)C2` [Compound 19, methyl 2-cyclopropyl-5-ethoxy-4-((2-(4-(4-(2-hydroxyacetamido)butyl)phenyl)-3-oxo-2,8-diazaspiro[4.5]decan-8-yl)methyl)benzoate]: the IC50 is 1000 to 5000 nM.

With `CCOc1cc(-c2ccc(F)cc2)c(C2CC2)cc1CN1CCC2(CC1)CC(=O)N(c1ccc(P(C)(=O)O)cc1)C2` [Compound 7, (4-(8-((2-cyclopropyl-5-ethoxy-4′-fluoro-[1,1′-biphenyl]-4-yl)methyl)-3-oxo-2,8-diazaspiro[4.5]decan-2-yl)phenyl)(methyl)phosphinic acid], the IC50 was ≤ 100 nM.

In turn, `CCOc1cc(C(=O)OC)c(C2CC2)cc1CN1CCC2(CC1)CC(=O)N(c1ccc(CCCCNC(N)=O)cc1)C2` [Compound 20, methyl 2-cyclopropyl-5-ethoxy-4-((3-oxo-2-(4-(4-ureidobutyl)phenyl)-2,8-diazaspiro[4.5]decan-8-yl)methyl)benzoate] registered an IC50 of 1000 to 5000 nM.

Turning to `CCOc1cc(-c2ccc(F)cn2)c(C2CCC2)cc1CN1CCC2(CC1)CN(c1ccc(P(=O)(O)O)cc1)C(=O)O2` [Compound 35, (4-(8-(5-cyclobulyl-2-ethoxy-4-(5-fluoropyridin-2-yl)benzyl)-2-oxo-1-oxa-3,8-diazaspiro[4.5]decan-3-yl)phenyl)phosphonic acid], the IC50 was ≤ 100 nM.

`CCOc1cc(C#N)c(C2CC2)cc1CN1CCC2(CC1)CN(c1ccc(P(C)(=O)O)cc1)C(=O)O2` [Compound 8, (4-(8-(4-cyano-5-cyclopropyl-2-ethoxybenzyl)-2-oxo-1-oxa-3,8-diazaspiro[4.5]decan-3-yl)phenyl)(methyl)phosphinic acid]: the IC50 is ≤ 100 nM.

`CCOc1nc(-c2ccc(F)cc2)c(C2CC2)cc1CN1CCC2(CC1)CN(C13CC(CP(=O)(O)O)(C1)C3)C(=O)O2` [Compound 11, ((3-(8-((5-cyclopropyl-2-ethoxy-6-(4-fluorophenyl)pyridin-3-yl)methyl)-2-oxo-1-oxa-3,8-diazaspiro[4.5]decan-3-yl)bicyclo[1.1.1]pentan-1-yl)methyl)phosphonic acid]: the half-inhibitory concentration (IC50) is ≤ 100 nM.

Consider `CCOc1cc(-c2ccc(F)cc2)c(C(C)C)cc1CN1CCC2(CC1)CN(c1ccc(P(=O)(O)O)cc1)C(=O)O2` [Compound 37, (4-(8-((5-ethoxy-4'-fluoro-2-isopropyl-[1,1'-biphenyl]-4-yl)methyl)-2-oxo-1-oxa-3,8-diazaspiro[4.5]decan-3-yl)phenyl)phosphonic acid], for which the IC50 is ≤ 100 nM.

For the compound `CCOc1cc(-c2ccc(F)cc2)c(C2CC2)cc1CN1CCC2(CC1)CC(=O)N(c1ccc(P(=O)(O)O)cc1)C2` [Compound 29, (4-(8-((2-cyclopropyl-5-ethoxy-4′-fluoro-[1,1′-biphenyl]-4-yl)methyl)-3-oxo-2,8-diazaspiro[4.5]decan-2-yl)phenyl)phosphonic acid], the IC50 was ≤ 100 nM.

In the case of `CCOc1cc(C(=O)OC)c(C2CC2)cc1CN1CCC2(CC1)CN(c1ccc(P(=O)(O)O)cc1)C(=O)N2` [Compound 21, (4-(8-(5-cyclopropyl-2-ethoxy-4-(methoxycarbonyl)benzyl)-2-oxo-1,3,8-triazaspiro[4.5]decan-3-yl)phenyl)phosphonic acid], the half-inhibitory concentration (IC50) is ≤ 100 nM.
